3 molecules from patent publication EP4800013A1, “PARG INHIBITOR” (Shanghai Qilu Pharmaceutical Research and Development …, priority 2023, dated 2025) can be followed below.

The nature of data set [1]: Pharmacokinetic evaluation in BALB/c nude mice (PO). The data set is classed as in vivo. To be noted: female, mouse, plasma, 30 mg/kg. How it is done: Using mice as test animals, the compounds of the present disclosure were administered via intravenous bolus and oral injection. Plasma samples were collected at specific time points. Compound concentrations in plasma were determined by LC-MS/MS, and PK parameters were calculated to characterize the pharmacokinetic behavior of the compounds of the present disclosure in plasma.
BALB/c nude mice, female, supplied by Jiangsu GemPharmatech Co., Ltd.
Dosing regimen for BALB/c nude mice: The PO (oral) experimental group consisted of 3 mice, which were administered at a dose of 30 mg/kg and a volume of 10 mL/kg. The dosing vehicle was 5% (v/v) DMSO/10% (v/v) Solutol/85% (v/v) saline.
Following administration, 0.025 mL of blood was collected via venipuncture at the following time points: 0.0833 (IV), 0.25, 0.5, 1, 2, 4, 8, and 24 hours. Blood samples were collected into EDTA-K2 tubes and centrifuged at 4°C and 2000 g for 10 minutes to separate plasma, which was stored at -80°C.
Mouse plasma processing: • 1) 15 µL of plasma was mixed with 200 µL of acetonitrile for protein precipitation. The mixture was vortexed and centrifuged for 15 minutes. • 2) The supernatant after processing was diluted with water and analyzed by LC/MS/MS to determine the concentration of the test compound.
Pharmacokinetic parameters were calculated using WinNonlin 6.1. Specifically, Cmax represents maximum plasma concentration, CL represents clearance, Vss represents volume of distribution at steady state, T1/2 represents terminal elimination half-life, MRTInf represents mean residence time, AUC represents area under the plasma concentration-time curve, and F represents bioavailability. Table 18: Pharmacokinetic parameters of the compounds of the present disclosure in CD-1 mice

The next data set has as its target T1, PXR (Homo sapiens, UniProt O75469).
T1 construct: host or cells: DPX2 (HepG2 stably transfected)
T1 sequence (O75469 1-434): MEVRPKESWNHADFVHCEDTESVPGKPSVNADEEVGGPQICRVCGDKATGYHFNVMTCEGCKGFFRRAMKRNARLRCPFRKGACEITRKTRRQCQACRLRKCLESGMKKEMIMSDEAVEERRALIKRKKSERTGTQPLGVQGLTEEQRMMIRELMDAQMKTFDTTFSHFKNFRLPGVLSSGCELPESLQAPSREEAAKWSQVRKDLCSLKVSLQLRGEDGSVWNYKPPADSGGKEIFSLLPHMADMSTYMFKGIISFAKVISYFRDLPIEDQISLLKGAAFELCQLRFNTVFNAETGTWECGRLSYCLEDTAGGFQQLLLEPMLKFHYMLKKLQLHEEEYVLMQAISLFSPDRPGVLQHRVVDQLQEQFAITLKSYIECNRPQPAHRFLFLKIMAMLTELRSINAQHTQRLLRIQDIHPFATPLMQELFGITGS
Nature of the data set: PXR activation in stably transfected DPX2 cells (CYP3A4 promoter-driven luciferase reporter). The data set is classed as cell-based. To be noted: 24 or 48 hours, test concentration not given. How it is done:
The purpose of this study was to evaluate the potential of the compounds of the present disclosure and the comparative compound (WO2023183850A1, compound of formula A) to activate PXR in vitro, thereby inducing drug-metabolizing enzymes.
DPX2 cells (HepG2 cell line stably transfected with PXR and a CYP3A4 promoter-driven luciferase reporter gene) were purchased from Puracyp Inc (Carlsbad, CA). Fetal bovine serum was purchased from Acantor.
• 1) DPX2 cells were cultured in medium containing 10% fetal bovine serum (FBS). • 2) DPX2 cells were cultured in a T-75 flask in a cell culture incubator at 37°C with 5% CO2 and 95% relative humidity. The cells were subjected to trypsinization when they reached 80% to 90% confluence. • 3) The medium was aspirated from the T-75 flask, and the cells were rinsed with 10 mL of PBS. After removing PBS, 3 to 5 mL of trypsin was added. The flask was incubated at 37°C for approximately 5 minutes or until cell detachment and floating were observed. […] After 24 or 48 hours of cell treatment, quantification of PXR activation was performed. • 8) CellTiter Fluor™ Cell Viability Assay Kit and One-Glo Luciferase Assay Kit were equilibrated to room temperature. […] 25 µL of the prepared cell viability assay system was gently added to each well, followed by incubation for 30 minutes in the cell culture incubator at 37°C. • 10) The 384-well plate was removed from the cell culture incubator, and fluorescence of individual wells was measured using a microplate reader in fluorescence mode with excitation at 400 nm and emission at 505 nm. Subsequently, 25 µL of the prepared luciferase assay system was gently added to each well, followed by vortexing and incubation at room temperature for 5 minutes, and luminescence of individual wells was measured using a microplate reader.
Cell viability percentage was calculated using the following formula: Cell viability (%) = Isample / Ivehicle × 100, where Isample is the mean fluorescence intensity of treated wells; Ivehicle is the mean fluorescence intensity of cells treated with 0.1% DMSO. […]

As a reminder, the AUC is the area under the concentration-time curve, a measure of exposure. The low end stands for less exposure, the high end for more exposure. In general, Cmax refers to the highest concentration seen after dosing. By MRT inf is commonly meant the average time that molecules of a dose stay in the body. What is called half-life is the time needed for the level to fall by half in the phase considered. Read a high half-life as slow decline. In data set [1], `CCc1nc2n(-c3nnc(C(F)F)s3)c3cc(S(=O)(=O)NC4(C)CC4)cc(N4C[C@H](C)N[C@@H](C)C4)c3n2n1` [Compound 065R] gave an AUC of 9.52 µM·h, a Cmax of 1620 nM, an MRT inf of 4.39 h and a half-life of 157 min. Moreover, the Fold activation on PXR was 1.45.
The matching figures for `C[C@H]1CN(c2cc(S(=O)(=O)NC3(C)CC3)cc3c2n2nc(C(F)F)nc2n3-c2nnc(C(F)F)s2)C[C@H](C)N1` [Compound 065S]: 9.21 µM·h, 1340 nM, 4.8 h, 161 min and 1.82.
The matching figures for `C[C@H]1CN(c2cc(S(=O)(=O)NC3(C)CC3)cc3c2n2nc(C(F)(F)F)nc2n3-c2nnc(C(F)F)s2)C[C@H](C)N1` [Compound 065W]: 16.4 µM·h, 1340 nM, 7.74 h, 317 min and 1.11.
